Molecules are shown by their SMILES. Where a name gives a salt, the structure may show the parent alone.

The source of these data is EP1191024A1, “Thiadiazines and their use as inhibitors of metalloproteinases” (Tschesche, Harald, priority 2000, dated 2002).

T1 sequence (P22894 100-262 limits assumed): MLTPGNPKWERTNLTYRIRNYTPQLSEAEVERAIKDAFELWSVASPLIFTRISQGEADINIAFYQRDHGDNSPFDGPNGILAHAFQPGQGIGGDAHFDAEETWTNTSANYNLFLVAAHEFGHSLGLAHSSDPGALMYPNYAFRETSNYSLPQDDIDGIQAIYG

The first experiment addresses T1, cdMMP-8 (Homo sapiens, UniProt P22894).
T1 construct: recombinant catalytic domain of human neutrophile Collagenase (cdMMP-8^Met80); made in house; host or cells: E. coli
The experiment in a line: MMP microfluorometric profiling assay (fluorogenic Mca-peptide substrate). The experiment is classed as biochemical.
Conditions: not given
On the procedure: The tested MMP enzymes were prepared more specifically in the laboratories of the applicants, with the exception of MMP-1. MMP-1 from human rheumatoid synovial fibroblasts was purchased from Calbiochem-Novabiochem Corporation, LaJolla. Preparation of the recombinant catalytic domain of human Gelatinase A (cdMMP-2): The catalytic domain of Pro-Gelatinase A was prepared using an E. coli expression system according to the method described by Kröger et al^[19]. The proenzyme was activated with 0.5 mM APMA at 37°C prior to use in the assay. […] Preparation of PMNL-Gelatinase (MMP-9): Latent PMNL-pro-Gelatinase was prepared from human plasma buffy coat as described by Tschesche et al^[21]. PMNL-pro-Gelatinase was activated prior to use by incubation with Trypsin at 37°C for 10 min. Inactivation of Trypsin was accomplished with TKI. […] The overexpressed protein was isolated as inclusion bodies and the renatured protein was purified by affinity chromatography with a hydroxamate inhibitor coupled column as described^[22]. Preparation of the recombinant catalytic domain of human Collagenase-3 (cdMMP-13): Human pro-cdMMP-13 was prepared using an E. coli expression system according to the method described^[23]. The isolated pro-cdMMP-13 was activated prior to use by incubation with 5 mM HgCl2 for 2 h at 37°C.
The enzymatic activity was measured using a modified version of a resonance energy transfer fluorogenic assay as described^[26]. […] The fluorescent MCA-group is quenched by resonance energy transfer to the 2,4-dinitrophenyl group. Matrix metalloproteinases cleave this substrate at the Gly-Leu bond. Cleavage results in the loss of energy transfer and a large increase in fluorescence of the MCA group. This substrate is commercially available from Bachem, Switzerland.
Enzyme inhibition assays were carried out in MRB which consisted of 50 mM HEPES/NaOH, pH 7.0, 10 mM CaCl2 and 0,02% (w/v) PEG 8000 at 25°C. MMP microfluorometric profiling assay was done in white U-bottomed 96-well plates (Microfluor 1 White, Dynex, USA) with a final substrate concentration of 6 µM MCA-peptide, approximately 0.3 to 5 nM MMP with variable inhibitor concentrations and 2% DMSO vehicle. From a 1.5 mM stock (100% DMSO) the inhibitors were serially diluted with MRB to 15, 10, 5, 3, 1, 0.6, 0.3, 0.1, 0.05, 0.01 and 0.005 µM final assay concentration. Column 1, rows A through H, contained only DMSO for the "enzyme-only" wells in the assay. […] Each measurement was done in triplicate to ensure statistically significant results. The experiment was further controlled for background fluorescence of the substrate, for fluorescence of fully cleaved substrate and for fluorescence quenching or augmentation from solutions containing the test compounds.
Datapoints from eight different MMPs generated on the SpectraFluor Plus were directly visualized on a master Excel spreadsheet. The response of inhibition was determinated for each inhibitor concentration by comparing the amount of hydrolysis (fluorescence units generated over 30 minutes of hydrolysis) of wells containing compound with the "enzyme-only" wells in column 1. With the program GraFit (Erithacus Software Limited) a 4 parameter logistic fit to the dose-response data was used to calculate IC50 values for each compound.
`C[C@H](NS(=O)(=O)N1CCOCC1)C(=O)NC1=NN=C(c2ccc(Cl)cc2)CS1` [Example 28, (2S)-N-[5-(4-Chlorophenyl)-6H-1,3,4-thiadiazin-2yl-]-2-[(4-morpholinylsulfonyl)amino]propanamide] had a 50% inhibitory concentration (IC50) of 296 nM.

`C[C@H](NS(=O)(=O)c1ccccc1)C(=O)NC1=NN=C(c2ccc(C(F)(F)F)cc2)CS1` [Example 4, (2S)-2-[(Phenylsulfonyl)amino]-N-{5-[4-(trifluormethyl)phenyl]-6H-1,3,4-thiadiazin-2-yl}propanamide] gave an IC50 of 515 nM.

Staying with this experiment, now noted: cdMMP-8, @ 15 (µM).
For `O=C(CC1NC(=O)NC1=O)NC1=NN=C(c2ccc(C3CCCCC3)cc2)CS1` (stereo not drawn) [Example 25, N-[5-(4-Cyclohexylphenyl)-6H-1,3,4-thiadiazin-2-yl]-2-(2,5-dioxo-4-imidazolidinyl)acetamide], the percent inhibition amounted to 56%^a)@ 15.

The same experiment, now with this note: read-out: cdMMP-8 IC50.
With `O=C(CC1NC(=O)NC1=O)NC1=NN=C(c2ccc(N3CCCC3)cc2)CS1` (stereo not drawn) [Example 26, 2-(2,5-Dioxo-4-imidazolidinyl)-N-{5-[4-(1-pyrrolidinyl)phenyl]-6H-1,3,4-thiadiazin-2-yl}acetamide], the half-maximal inhibitory concentration (IC50) amounted to 1170 nM. Take `CC(C)(C)c1ccc(S(=O)(=O)NCC(=O)NC2=NN=C(c3ccc(Cl)cc3Cl)CS2)cc1` [Example 18, 2-{[(4-tert-Butylphenyl)sulfonyl]amino}-N-[5-(2,4-dichlorophenyl)-6H-1,3,4-thiadiazin-2-yl]acetamide]: the concentration for half-maximal inhibition (IC50) is 492 nM. Consider `C[C@@H](NS(=O)(=O)c1ccccc1)C(=O)NC1=NN=C(c2ccc(C#N)cc2)CS1` [Example 1, (2R)-N-[5-(4-Cyanophenyl)-6H-1,3,4-thiadiazine-2-yl]-2-[(phenylsulfonyl)amino]-propanamide], for which the IC50 amounted to 468 nM.

On to `O=C(CC1NC(=O)NC1=O)NC1=NN=C(c2ccc(Br)cc2)CS1` (stereo not drawn) [Example 24, N-[5-(4-Bromophenyl)-6H-1,3,4-thiadiazin-2-yl]-2-(2,5-dioxo-4-imidazolidinyl)-acetamide], for which the half-maximal inhibitory concentration (IC50) came to 578 nM. For the compound `C[C@H](NS(=O)(=O)c1ccccc1)C(=O)NC1=NN=C(c2ccc([N+](=O)[O-])cc2)CS1` [Example 9, (2S)-N-[5-(4-Nitrophenyl)-6H-1,3,4-thiadiazin-2-yl]-2-[(phenylsulfonyl)amino]-propanamide], the concentration for half-maximal inhibition (IC50) was 337 nM. For the compound `C=CCNC1=NN=C(c2ccc(Cl)cc2)CS1` [Example 31, N-Allyl-5-(4-chlorophenyl)-6H-1,3,4-thiadiazin-2-amine hydrobromide], the IC50 is 51900 nM.

As to `O=C(CC1NC(=O)NC1=O)NC1=NN=C(c2ccc(Cl)cc2)CS1` (stereo not drawn) [Example 23, N-[5-(4-Chlorophenyl)-6H-1,3,4-thiadiazin-2-yl]-2-(2,5-dioxo-4-imidazolidinyl)-acetamide], the 50% inhibitory concentration (IC50) was determined as 648 nM. Same read-out and setting: as for `COc1ccc(S(=O)(=O)NCC(=O)NC2=NN=C(c3ccc(Cl)cc3Cl)CS2)cc1` [Example 19, N-[5-(2,4-Dichlorophenyl)-6H-1,3,4-thiadiazin-2-yl]-2-{[(4-methoxyphenyl)-sulfonyl]amino}acetamide], the figure is 306 nM. As to `C[C@H](NS(=O)(=O)c1ccccc1)C(=O)NC1=NN=C(c2ccc(C#N)cc2)CS1` [Example 3, (2S)-N-[5-(4-Cyanophenyl)-6H-1,3,4-thiadiazin-2-yl]-2-[(phenylsulfonyl)amino]-propanamide], the IC50 came to 440 nM. With `CC(C)[C@@H](NS(=O)(=O)c1ccccc1)C(=O)NC1=NN=C(c2ccc(Cl)cc2)CS1` [Example 2, (2R)-N-[5-(4-Chlorophenyl)-6H-1,3,4-thiadiazin-2-yl]-3-methyl-2-[(phenylsulfonyl)amino]butanamide], the IC50 was determined as 8630 nM. With `C[C@H](NS(=O)(=O)c1cccnc1)C(=O)NC1=NN=C(c2ccc(Cl)cc2)CS1` [Example 29, (2S)-N-[5-(4-Chlorophenyl)-6H-1,3,4-thiadiazin-2-yl]-2-[(3-pyridylsulfonyl)-amino]propanamide], the half-maximal inhibitory concentration (IC50) came to 377 nM. On the same count and under the same terms, as for `O=C1C[C@@H](C(=O)NC2=NN=C(c3ccc(Cl)cc3)CS2)NC(=O)N1` [Example 30, (4S)-N-[5-(4-Chlorophenyl)-6H-1,3,4-thiadiazin-2-yl]-2,6-dioxohexahydro-4-pyrimidinecarboxamide], the figure is 692 nM; as for `COc1ccc(S(=O)(=O)NCC(=O)NC2=NN=C(c3c(F)c(F)c(F)c(F)c3F)CS2)cc1` [Example 16, 2-{[(4-Methoxyphenyl)sulfonyl]amino}-N-[5-(2,3,4,5,6-pentafluorophenyl)-6H-1,3,4-thiadiazin-2-yl]acetamide], 527 nM; as for `COc1ccc(S(=O)(=O)N[C@@H](C)C(=O)NC2=NN=C(c3ccc(C)cc3)CS2)cc1` [Example 17, (2S)-2-{[(4-Methoxyphenyl)sulfonyl]amino}-N-[5-(4-methylphenyl)-6H-1,3,4-thiadiazin-2-yl]propanamide], 599 nM. The same measure, in the same setting: as for `COc1ccc(C2=NN=C(NC(=O)[C@H](C)NS(=O)(=O)c3ccccc3)SC2)cc1` [Example 12, (2S)-N-[5-(4-Methoxyphenyl)-6H-1,3,4-thiadiazin-2-yl]-2-[(phenylsulfonyl)-amino]propanamide], the figure is 354 nM; as for `C[C@H](NS(=O)(=O)c1ccccc1)C(=O)NC1=NN=C(c2ccc(Cl)s2)CS1` [Example 10, (2S)-N-[5-(5-Chloro-2-thienyl)-6H-1,3,4-thiadiazin-2-yl]-2-[(phenylsulfonyl)-amino]propanamide], 371 nM; as for `CC(C)[C@H](NS(=O)(=O)c1ccccc1)C(=O)NC1=NN=C(c2ccc(Cl)cc2)CS1` [Example 22, (2S)-N-[5-(4-Chlorophenyl)-6H-1,3,4-thiadiazin-2-yl]-3-methyl-2-[(phenylsulfonyl)amino]butanamide], 1580 nM. For `C[C@H](NS(=O)(=O)c1ccccc1)C(=O)NC1=NN=C(c2ccc(Br)cc2)CS1` [Example 6, (2S)-N-[5-(4-Bromophenyl)-6H-1,3,4-thiadiazin-2-yl]-2-[(phenylsulfonyl)amino]-propanamide], the IC50 stood at 231 nM.
